# Laboratory results as given in patent US9695194B2, “Benzoxazinone derivatives for treatment of skin diseases” (SIXERA PHARMA AB, priority 2014, dated 2017).
# pIC50: −log10 of the molar value.
# Key:
# [1] = target: Recombinant human KLK7 (Homo sapiens (Human), UniProt P49862); experiment: KLK7 assay; format: biochemical; conditions: substrate S-2586, 37° C., pH 7.2
# [2] = target: Trypsin (Bos taurus (Bovine), UniProt P00760); experiment: Trypsin assay; format: biochemical, human; conditions: substrate S-2288, 37° C., pH 7.2
# Chain of Trypsin (P00760 24-246): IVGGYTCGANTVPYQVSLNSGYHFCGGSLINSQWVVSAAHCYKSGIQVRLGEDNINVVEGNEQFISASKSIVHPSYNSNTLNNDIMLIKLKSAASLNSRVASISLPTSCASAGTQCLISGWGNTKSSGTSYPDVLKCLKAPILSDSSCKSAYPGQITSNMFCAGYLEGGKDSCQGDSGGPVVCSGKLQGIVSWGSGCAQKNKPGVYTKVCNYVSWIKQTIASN
# [3] = target: Cathepsin G (Homo sapiens (Human), UniProt P08311); experiment: Cathepsin G assay
# Chain of Cathepsin G (P08311 21-255): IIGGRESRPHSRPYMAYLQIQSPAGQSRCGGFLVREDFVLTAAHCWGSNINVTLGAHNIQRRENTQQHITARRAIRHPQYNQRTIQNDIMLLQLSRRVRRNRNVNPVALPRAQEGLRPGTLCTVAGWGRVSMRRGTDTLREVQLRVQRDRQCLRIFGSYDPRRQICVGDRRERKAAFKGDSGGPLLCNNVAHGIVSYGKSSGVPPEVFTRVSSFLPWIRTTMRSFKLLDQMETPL
# Protocol: (§1) IC50 values for a number of substituted 3,1-benzoxazin-4-ones on a panel of human proteases were determined.
# [4] = target: Chymotrypsin, bovine (Bos taurus (Bovine), UniProt P00766); experiment: Chymotrypsin assay; format: biochemical; conditions: substrate S-2586, 37° C., pH 7.2
# Protocol: Materials: Chymotrypsin, bovine, 25 μg (Roche, sequence grade), Substrate S-2586 (Chromogenics, cat. no. 82 08 94)
# [5] = target: Recombinant human KLK5 (Homo sapiens (Human), UniProt Q9Y337); experiment: KLK5 assay
# Chain of Recombinant human KLK5 (Q9Y337 23-293): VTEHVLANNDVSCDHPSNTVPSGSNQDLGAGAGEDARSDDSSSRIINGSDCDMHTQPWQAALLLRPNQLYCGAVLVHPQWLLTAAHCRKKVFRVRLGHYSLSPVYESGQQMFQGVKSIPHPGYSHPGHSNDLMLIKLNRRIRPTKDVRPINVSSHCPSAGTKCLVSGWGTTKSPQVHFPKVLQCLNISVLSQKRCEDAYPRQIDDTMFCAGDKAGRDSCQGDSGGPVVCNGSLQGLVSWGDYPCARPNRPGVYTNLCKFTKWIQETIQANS
# Protocol: as §1
# Chain of Recombinant human KLK7 (P49862 30-253): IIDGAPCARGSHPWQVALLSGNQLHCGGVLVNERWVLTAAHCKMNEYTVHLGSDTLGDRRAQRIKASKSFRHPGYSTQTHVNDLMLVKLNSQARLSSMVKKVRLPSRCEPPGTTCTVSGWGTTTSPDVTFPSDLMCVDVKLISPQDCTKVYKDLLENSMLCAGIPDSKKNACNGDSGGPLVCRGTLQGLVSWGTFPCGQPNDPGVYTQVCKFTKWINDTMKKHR
SMILES,pIC50 [1],pIC50 [2],pIC50 [3],pIC50 [4],pIC50 [5]
"CCOc1cc2c(=O)oc(-c3ccccc3SC)nc2cc1OC [Compound 1, 6-ethoxy-7-methoxy-2-(2-methylsulfanylphenyl)-3,1-benzoxazin-4-one]",7.32,< 5.00,< 5.00,< 5.00,
"CCOc1cc2c(=O)oc(-c3ccccc3Cl)nc2cc1OC [Compound 2, 2-(2-chlorophenyl)-6-ethoxy-7-methoxy-3,1-benzoxazin-4-one]",7.14,< 5.00,< 5.00,< 5.00,
CCOc1cc2c(=O)oc(-c3ccc(OC)cc3OC)nc2cc1OC [Compound 3],6.94,< 5.00,5.96,< 5.00,
CCOc1cc2c(=O)oc(-c3ccccc3S(C)(=O)=O)nc2cc1OC [Compound 4],6.64,< 5.00,5.55,< 5.00,
CCOc1cc2c(=O)oc(-c3ccccc3OC)nc2cc1OC [Compound 5],7.07,< 5.00,5.92,< 5.00,
COc1ccccc1-c1nc2cc3c(cc2c(=O)o1)OCCCO3 [Compound 6],7.10,< 5.00,,> 7.00,
O=c1oc(-c2ccccc2Cl)nc2cc3c(cc12)OCCCO3 [Compound 7],7.05,< 5.00,5.72,> 7.00,
COc1ccc(-c2nc3cc4c(cc3c(=O)o2)OCCCO4)c(OC)c1 [Compound 8],7.19,< 5.00,,> 7.00,
CSc1ccccc1-c1nc2cc3c(cc2c(=O)o1)OCCCO3 [Compound 9],6.64,< 5.00,5.89,,
CS(=O)(=O)c1ccccc1-c1nc2cc3c(cc2c(=O)o1)OCCCO3 [Compound 10],6.73,< 5.00,,6.70,
CC(C)c1ccc(-c2nc3cc4c(cc3c(=O)o2)OCCCO4)c(C(C)C)c1 [Compound 11],5.86,< 5.00,< 5.00,6.00,
COc1cc2nc(-c3ccccc3SC)oc(=O)c2cc1OC [Compound 12],6.83,< 5.00,,,
COc1ccccc1-c1nc2cc3c(cc2c(=O)o1)OCCO3 [Compound 13],6.81,5.74,,> 7.00,
CS(=O)(=O)c1ccccc1-c1nc2cc3c(cc2c(=O)o1)OCCO3 [Compound 14],6.74,5.74,,> 7.00,6.22
COC1=CC=C(c2nc3cc4c(cc3c(=O)o2)OCCO4)C(OC)C1 (stereo not drawn) [Compound 15],6.98,5.43,,> 7.00,
O=c1oc(-c2ccccc2Cl)nc2cc3c(cc12)OCCO3 [Compound 16],6.83,5.43,,> 7.00,
COc1ccc(-c2nc3cc(OC)c(OC)cc3c(=O)o2)c(OC)c1 [Compound 17],6.76,< 5.00,7.00,5.92,6.00
COc1cc2nc(-c3ccccc3I)oc(=O)c2cc1OC [Compound 18],,< 5.00,5.72,< 5.00,
